Tests used:
[1] = test system: barnyardgrass (Echinochloa crus-galli); experiment: Test A preemergence, visual injury rating 0-100 (0 no effect, 100 complete control); type: in vivo
[2] = test system: barnyardgrass (Echinochloa crus-galli); experiment: Test B flooded paddy test, visual rating 0-100; details: Flood, 250 g ai/ha, applied to paddy water, rated after 13 to 15 days
rice (Oryza sativa) = experiment: Test B flooded paddy test, visual rating 0-100 (0 no effect, 100 complete control); details: Flood, 250 g ai/ha, applied to paddy water, rated after 13 to 15 days
[3] = test system: foxtail, giant (giant foxtail, Setaria faberii); experiment: Test A postemergence, visual injury rating 0-100; type: in vivo; details: 0 to 100 scale
kochia (Kochia scoparia) [4] = experiment: Test A postemergence, visual injury rating 0-100; type: in vivo; details: 0 to 100 scale
[5] = test system: ragweed (common ragweed, Ambrosia elatior); experiment: Test A postemergence, visual injury rating 0-100; type: in vivo; details: 0 to 100 scale
[6] = test system: pigweed (Amaranthus retroflexus); experiment: Test A postemergence, visual injury rating 0-100; type: in vivo; details: 0 to 100 scale
corn (Zea mays) = experiment: Test A postemergence, visual injury rating 0-100; type: in vivo; details: 0 to 100 scale
[7] = test system: galium (catchweed bedstraw, Galium aparine); experiment: Test A postemergence, visual injury rating 0-100; type: in vivo; details: 0 to 100 scale
[8] = test system: barnyardgrass (Echinochloa crus-galli); experiment: Test A postemergence, visual injury rating 0-100; type: in vivo; details: 0 to 100 scale
[9] = test system: wheat (Triticum aestivum); experiment: Test A postemergence, visual injury rating 0-100; type: in vivo; details: 0 to 100 scale
[10] = test system: ryegrass, Italian (Italian ryegrass, Lolium multiflorum); experiment: Test A postemergence, visual injury rating 0-100; type: in vivo; details: 0 to 100 scale
[11] = test system: blackgrass (Alopecurus myosuroides); experiment: Test A postemergence, visual injury rating 0-100; type: in vivo; details: 0 to 100 scale
[12] = test system: foxtail, giant (giant foxtail, Setaria faberii); experiment: Test A preemergence, visual injury rating 0-100; type: in vivo
kochia (Kochia scoparia) [13] = experiment: Test A preemergence, visual injury rating 0-100; type: in vivo
[14] = test system: ragweed (common ragweed, Ambrosia elatior); experiment: Test A preemergence, visual injury rating 0-100; type: in vivo
[15] = test system: pigweed (Amaranthus retroflexus); experiment: Test A preemergence, visual injury rating 0-100; type: in vivo
[16] = test system: ryegrass, Italian (Italian ryegrass, Lolium multiflorum); experiment: Test A preemergence, visual injury rating 0-100; type: in vivo
[17] = test system: ducksalad (Heteranthera limosa); experiment: Test B flooded paddy test, visual rating 0-100; details: Flood, 250 g ai/ha, applied to paddy water, rated after 13 to 15 days

| SMILES | Barnyardgrass plant response rating (0 to 100 scale) ([1]; 125 g ai/ha) | Barnyardgrass plant response rating (0 to 100 scale) ([1]; 500 g ai/ha) | Barnyardgrass plant response rating (0 to 100 scale) [2] | Rice plant response rating (0 to 100 scale) (rice (Oryza sativa)) | Foxtail, Giant plant response rating ([3]; 125 g ai/ha) | Foxtail, Giant plant response rating ([3]; 500 g ai/ha) | Kochia plant response rating (kochia (Kochia scoparia) [4]; 125 g ai/ha) | Kochia plant response rating (kochia (Kochia scoparia) [4]; 500 g ai/ha) | Ragweed plant response rating ([5]; 125 g ai/ha) | Ragweed plant response rating ([5]; 500 g ai/ha) | Pigweed plant response rating ([6]; 125 g ai/ha) | Pigweed plant response rating ([6]; 500 g ai/ha) | Corn plant response rating (corn (Zea mays); 125 g ai/ha) | Corn plant response rating (corn (Zea mays); 500 g ai/ha) | Galium plant response rating ([7]; 125 g ai/ha) | Galium plant response rating ([7]; 500 g ai/ha) | Barnyardgrass plant response rating ([8]; 125 g ai/ha) | Barnyardgrass plant response rating ([8]; 500 g ai/ha) | Wheat plant response rating ([9]; 125 g ai/ha) | Wheat plant response rating ([9]; 500 g ai/ha) | also measured |
| --- | --- | --- | --- | --- | --- | --- | --- | --- | --- | --- | --- | --- | --- | --- | --- | --- | --- | --- | --- | --- | --- |
| CC1=[N+]([O-])C(C(=O)Nc2cccc(F)c2F)C(c2ccc(C(F)(F)F)nc2)C1 (racemic) [Compound 60] | 90 | 100 | 40 | 0 | 70 | 90 | 0 | 10 | 0 | 40 | 0 | 10 | 20 | 60 | 20 | 60 | 40 | 90 | 20 | 70 | Ryegrass, Italian plant response rating ([10]; 125 g ai/ha): 0; Ryegrass, Italian plant response rating ([10]; 500 g ai/ha): 40; Blackgrass plant response rating ([11]; 125 g ai/ha): 10; Blackgrass plant response rating ([11]; 500 g ai/ha): 70; Foxtail, Giant plant response rating (0 to 100 scale) ([12]; 125 g ai/ha): 90; Foxtail, Giant plant response rating (0 to 100 scale) ([12]; 500 g ai/ha): 100; Kochia plant response rating (0 to 100 scale) (kochia (Kochia scoparia) [13]; 125 g ai/ha): 10; Kochia plant response rating (0 to 100 scale) (kochia (Kochia scoparia) [13]; 500 g ai/ha): 80; Ragweed plant response rating (0 to 100 scale) ([14]; 125 g ai/ha): 0; Ragweed plant response rating (0 to 100 scale) ([14]; 500 g ai/ha): 90; Pigweed plant response rating (0 to 100 scale) ([15]; 125 g ai/ha): 50; Pigweed plant response rating (0 to 100 scale) ([15]; 500 g ai/ha): 80; Ryegrass, Italian plant response rating (0 to 100 scale) ([16]; 125 g ai/ha): 10; Ryegrass, Italian plant response rating (0 to 100 scale) ([16]; 500 g ai/ha): 70; Ducksalad plant response rating (0 to 100 scale) [17]: 0 |
| CC1=[N+]([O-])C(C(=O)Nc2cccc(F)c2F)C(c2ccc(C)c(C(F)(F)F)c2)C1 (racemic) [Compound 62] | 90 | 90 | 55 | 0 | 50 | 80 | 0 | 20 | 0 | 50 | 0 | 10 | 60 | 80 | 40 | 50 | 70 | 80 | 40 | 50 | Ryegrass, Italian plant response rating ([10]; 125 g ai/ha): 70; Ryegrass, Italian plant response rating ([10]; 500 g ai/ha): 80; Blackgrass plant response rating ([11]; 125 g ai/ha): 40; Blackgrass plant response rating ([11]; 500 g ai/ha): 70; Foxtail, Giant plant response rating (0 to 100 scale) ([12]; 125 g ai/ha): 90; Foxtail, Giant plant response rating (0 to 100 scale) ([12]; 500 g ai/ha): 90; Kochia plant response rating (0 to 100 scale) (kochia (Kochia scoparia) [13]; 125 g ai/ha): 0; Kochia plant response rating (0 to 100 scale) (kochia (Kochia scoparia) [13]; 500 g ai/ha): 60; Ragweed plant response rating (0 to 100 scale) ([14]; 125 g ai/ha): 0; Ragweed plant response rating (0 to 100 scale) ([14]; 500 g ai/ha): 60; Pigweed plant response rating (0 to 100 scale) ([15]; 125 g ai/ha): 10; Pigweed plant response rating (0 to 100 scale) ([15]; 500 g ai/ha): 70; Ryegrass, Italian plant response rating (0 to 100 scale) ([16]; 125 g ai/ha): 90; Ryegrass, Italian plant response rating (0 to 100 scale) ([16]; 500 g ai/ha): 90; Ducksalad plant response rating (0 to 100 scale) [17]: 0 |
| CC1=[N+]([O-])C(C(=O)Nc2cccc(F)c2F)C(c2ccc(F)c(Cl)c2)C1 (racemic) [Compound 63] | 80 | 90 | 65 | 0 | 50 | 90 | 20 | 30 | 0 | 20 | 0 | 20 | 10 | 90 | 30 | 70 | 50 | 90 | 40 | 80 | Ryegrass, Italian plant response rating ([10]; 125 g ai/ha): 30; Ryegrass, Italian plant response rating ([10]; 500 g ai/ha): 90; Blackgrass plant response rating ([11]; 125 g ai/ha): 70; Blackgrass plant response rating ([11]; 500 g ai/ha): 90; Foxtail, Giant plant response rating (0 to 100 scale) ([12]; 125 g ai/ha): 90; Foxtail, Giant plant response rating (0 to 100 scale) ([12]; 500 g ai/ha): 90; Kochia plant response rating (0 to 100 scale) (kochia (Kochia scoparia) [13]; 125 g ai/ha): 0; Kochia plant response rating (0 to 100 scale) (kochia (Kochia scoparia) [13]; 500 g ai/ha): 40; Ragweed plant response rating (0 to 100 scale) ([14]; 125 g ai/ha): 0; Ragweed plant response rating (0 to 100 scale) ([14]; 500 g ai/ha): 80; Pigweed plant response rating (0 to 100 scale) ([15]; 125 g ai/ha): 10; Pigweed plant response rating (0 to 100 scale) ([15]; 500 g ai/ha): 60; Ryegrass, Italian plant response rating (0 to 100 scale) ([16]; 125 g ai/ha): 20; Ryegrass, Italian plant response rating (0 to 100 scale) ([16]; 500 g ai/ha): 80; Ducksalad plant response rating (0 to 100 scale) [17]: 30 |
| CC1=[N+]([O-])C(C(=O)Nc2cccc(F)c2F)C(c2ccc(F)c(C(F)(F)F)c2)C1 (racemic) [Compound 64] | 90 | 90 | 60 | 0 | 70 | 90 | 0 | 30 | 10 | 40 | 0 | 50 | 90 | 90 | 40 | 70 | 70 | 90 | 70 | 90 | Ryegrass, Italian plant response rating ([10]; 125 g ai/ha): 70; Ryegrass, Italian plant response rating ([10]; 500 g ai/ha): 80; Blackgrass plant response rating ([11]; 125 g ai/ha): 80; Blackgrass plant response rating ([11]; 500 g ai/ha): 80; Foxtail, Giant plant response rating (0 to 100 scale) ([12]; 125 g ai/ha): 90; Foxtail, Giant plant response rating (0 to 100 scale) ([12]; 500 g ai/ha): 90; Kochia plant response rating (0 to 100 scale) (kochia (Kochia scoparia) [13]; 125 g ai/ha): 20; Kochia plant response rating (0 to 100 scale) (kochia (Kochia scoparia) [13]; 500 g ai/ha): 80; Ragweed plant response rating (0 to 100 scale) ([14]; 125 g ai/ha): 0; Ragweed plant response rating (0 to 100 scale) ([14]; 500 g ai/ha): 70; Pigweed plant response rating (0 to 100 scale) ([15]; 125 g ai/ha): 50; Pigweed plant response rating (0 to 100 scale) ([15]; 500 g ai/ha): 80; Ryegrass, Italian plant response rating (0 to 100 scale) ([16]; 125 g ai/ha): 90; Ryegrass, Italian plant response rating (0 to 100 scale) ([16]; 500 g ai/ha): 90; Ducksalad plant response rating (0 to 100 scale) [17]: 70 |
